In US20260183320A1, “METHOD FOR TREATING CANCER BY COMBINING ALKYLATING AGENT PRODRUG AND CELL CYCLE INHIBITOR” (ASCENTAWITS PHARMACEUTICALS, LTD., priority 2022, published 2026):
“Also recorded” adds a separate entry of the source. Read-outs that look alike come from different tables or passages of the source.

What was measured:
[1] = tested on: p53-deficient (HT29) cell line; assay: CTG cell proliferation assay, HT29 cell line; assay type: cell-based; conditions: for IC50: read-out: IC50
Method: (§1) Each CTG cell proliferation assay included the steps as follows: • 1) An H460 or HT29 cell suspension was added to a 96-well plate at 100 μL per well so that each well contained 2000 or 10000 cells. • 2) The cells were incubated overnight at 37° C. in an incubator with 5% CO2. • 3) Treatment with Compounds
(§2) Combination therapy: 1 μL of adavosertib (at four concentrations), AZD7762 (at four concentrations), palbociclib (at four concentrations) or ceralasertib (at three concentrations) was added to each well and shaken gently until homogeneous mixing.
(§3) 7) Chemiluminescence was read for 1000 ms on a multimode microplate reader. • 8) IC50 (half-maximal inhibitory concentration) values of the compounds were calculated using the GraphPad Prism 5 software. 1.

[2] = tested on: wild-type p53-expressing (H460) cell line; assay: CTG cell proliferation assay, H460 cell line; assay type: cell-based; conditions: for IC50: Homo sapiens, read-out: IC50
Method: as §1, §2, §3

[3] = HT29 (p53-deficient), various concentrations, also low
[4] = H460 (wild-type p53), both drugs at low concentrations

IC50 ([1]; HT29, monotherapy, 72 h): 73.4 nM | IC50 ([1]; Homo sapiens, HT-29, 72 h, HT29, monotherapy, 72 h): 84.8 nM | IC50 ([1]; Homo sapiens, HT-29, HT29, monotherapy, first assay): 129 nM | IC50 ([1]; Homo sapiens, HT-29, HT29, monotherapy, order-of-addition assay): 88.6 nM | IC50 ([1]; Homo sapiens, HT-29, HT29, monotherapy, second assay): 99 nM | IC50 ([1]; Homo sapiens, HT-29, HT29, with 0.04 μM ceralasertib, first assay): 3.26 nM | IC50 ([1]; Homo sapiens, HT-29, HT29, with 0.04 μM ceralasertib, second assay): 1.62 nM | IC50 ([1]; Homo sapiens, HT-29, HT29, with 50 nM palbociclib (2 h pretreatment), 72 h): 62.5 nM | IC50 ([1]; Homo sapiens, HT-29, HT29, with 100 nM AZD7762 (2 h pretreatment), 72 h): 1.29 nM | IC50 ([1]; Homo sapiens, HT-29, HT29, with 100 nM adavosertib (2 h pretreatment), 72 h): 2.11 nM | IC50 ([1]; Homo sapiens, HT-29, HT29, with 130 nM AZD7762 (2 h pretreatment), 72 h): 1.2 nM | IC50 ([1]; Homo sapiens, HT-29, HT29, with 130 nM adavosertib (2 h pretreatment), 72 h): 1.52 nM | IC50 ([1]; Homo sapiens, HT-29, HT29, with 160 nM AZD7762 (2 h pretreatment), 72 h): 1.18 nM | IC50 ([1]; Homo sapiens, HT-29, HT29, with 160 nM adavosertib (2 h pretreatment), 72 h): 1.2 nM | IC50 ([1]; Homo sapiens, HT-29, HT29, with 1000 nM palbociclib (2 h pretreatment), 72 h): 38.1 nM | IC50 ([1]; Homo sapiens, HT-29, HT29, with 1.3 μM ceralasertib, first assay): 1.42 nM | IC50 ([1]; Homo sapiens, HT-29, HT29, with 1.3 μM ceralasertib, second assay): 1.21 nM | IC50 ([1]; Homo sapiens, HT-29, HT29, with 2 μM ceralasertib, first assay): 2.41 nM | IC50 ([1]; Homo sapiens, HT-29, HT29, with 2 μM ceralasertib, second assay): 1.23 nM | IC50 ([1]; Homo sapiens, HT-29, HT29, with 5000 nM palbociclib (2 h pretreatment), 72 h): 31.4 nM | IC50 ([2]; NCI-H460, 72 h, H460, monotherapy, 72 h): 0.34 nM | IC50 ([2]; NCI-H460, H460, monotherapy, first assay): 0.4 nM | IC50 ([2]; NCI-H460, H460, monotherapy, second assay): 0.24 nM | IC50 ([2]; NCI-H460, H460, with 0.05 nM palbociclib (2 h pretreatment), 72 h): 0.38 nM | IC50 ([2]; NCI-H460, H460, with 0.5 nM AZD7762 (2 h pretreatment), 72 h): 0.33 nM | IC50 ([2]; NCI-H460, H460, with 0.5 nM adavosertib (2 h pretreatment), 72 h): 0.31 nM | IC50 ([2]; NCI-H460, H460, with 0.64 nM palbociclib (2 h pretreatment), 72 h): 0.38 nM | IC50 ([2]; NCI-H460, H460, with 6.4 nM AZD7762 (2 h pretreatment), 72 h): 0.47 nM | IC50 ([2]; NCI-H460, H460, with 6.4 nM adavosertib (2 h pretreatment), 72 h): 0.27 nM | IC50 ([2]; NCI-H460, H460, with 0.15 μM ceralasertib, first assay): 0.06 nM | IC50 ([2]; NCI-H460, H460, with 0.15 μM ceralasertib, second assay): 0.06 nM | IC50 ([2]; NCI-H460, H460, with 160 nM AZD7762 (2 h pretreatment), 72 h): 0.16 nM | IC50 ([2]; NCI-H460, H460, with 160 nM adavosertib (2 h pretreatment), 72 h): 0.19 nM | IC50 ([2]; NCI-H460, H460, with 400 nM palbociclib (2 h pretreatment), 72 h): 0.42 nM | IC50 ([2]; NCI-H460, H460, with 0.44 μM ceralasertib, first assay): 0.02 nM | IC50 ([2]; NCI-H460, H460, with 0.44 μM ceralasertib, second assay): 0.01 nM | IC50 ([2]; NCI-H460, H460, with 800 nM adavosertib (2 h pretreatment), 72 h): 0.15 nM | IC50 ([2]; NCI-H460, H460, with 1.3 μM ceralasertib, first assay): 0.03 nM | IC50 ([2]; NCI-H460, H460, with 1.3 μM ceralasertib, second assay): 0.02 nM
Compound: C[C@H](OP(=O)(N1CC1)N1CC1)c1ccc([N+](=O)[O-])c(Oc2cccc(C(=O)N(C)C)c2)c1 [AST-3424, (S)-1-(3-(3-N,N-dimethylaminocarbonyl)phenoxyl-4-nitrophenyl)-1-ethyl-N,N′-bis(ethylene)phosphoramidate]
additive cytotoxic effect in combination therapy with ceralasertib ([1]; HT29 (p53-deficient), various concentrations): very significant additive effects; also recorded: significant additive cytotoxic effects | additive cytotoxic effect in combination therapy with AZD7762 [1, 3]: significant additive cytotoxic effects | additive cytotoxic effect in combination therapy with adavosertib [1, 3]: significant additive cytotoxic effects | additive cytotoxic effect in combination therapy with palbociclib [1, 3]: significant additive cytotoxic effects | Ratio single/combo ([1]; HT29, 0.44 μM ceralasertib 2 h-pretreatment + AST-3424-72 h-cotreatment): 37.56 | Ratio single/combo ([1]; HT29, 0.44 μM ceralasertib + AST-3424 72 h, simultaneously): 51.53 | Ratio single/combo ([1]; HT29, AST-3424-2 h-pretreatment + 0.44 μM ceralasertib-72 h-cotreatment): 52.44 | Ratio single/combo ([1]; HT29, IC50 monotherapy / IC50 with 50 nM palbociclib): 1.17 | Ratio single/combo ([1]; HT29, IC50 monotherapy / IC50 with 100 nM AZD7762): 65.70 | Ratio single/combo ([1]; HT29, IC50 monotherapy / IC50 with 100 nM adavosertib): 40.17 | Ratio single/combo ([1]; HT29, IC50 monotherapy / IC50 with 130 nM AZD7762): 70.63 | Ratio single/combo ([1]; HT29, IC50 monotherapy / IC50 with 130 nM adavosertib): 55.39 | Ratio single/combo ([1]; HT29, IC50 monotherapy / IC50 with 160 nM AZD7762): 71.82 | Ratio single/combo ([1]; HT29, IC50 monotherapy / IC50 with 160 nM adavosertib): 70.63 | Ratio single/combo ([1]; HT29, IC50 monotherapy / IC50 with 1000 nM palbociclib): 1.92 | Ratio single/combo ([1]; HT29, IC50 monotherapy / IC50 with 5000 nM palbociclib): 2.34 | influence of the order of adding drugs on additive cytotoxic effect with ceralasertib ([1]; HT29, different orders of adding AST-3424 and 0.44 μM ceralasertib): did not show any differences | IC50 ([1]; Homo sapiens, HT-29, 72 h, HT29, 0.44 μM ceralasertib + AST-3424 72 h, simultaneously): 1.72 nM | IC50 ([1]; Homo sapiens, HT-29, HT29, 0.44 μM ceralasertib 2 h-pretreatment + AST-3424-72 h-cotreatment): 2.36 nM | IC50 ([1]; Homo sapiens, HT-29, HT29, AST-3424-2 h-pretreatment + 0.44 μM ceralasertib-72 h-cotreatment): 1.69 nM | additive cytotoxic effect in combination therapy with ceralasertib ([2]; H460 (wild-type p53)): significant additive cytotoxic effect | additive cytotoxic effect in combination therapy with palbociclib ([2]; H460 (wild-type p53), all concentrations): did not exhibit any significant additive cytotoxic effects | additive cytotoxic effect in combination therapy with AZD7762 [2, 4]: not significant | additive cytotoxic effect in combination therapy with adavosertib [2, 4]: not significant | additive cytotoxic effect in combination therapy with ceralasertib [2, 4]: not significant | additive cytotoxic effect in combination therapy with AZD7762 ([2]; H460 (wild-type p53), medium and high concentrations): certain additive cytotoxic effects | additive cytotoxic effect in combination therapy with ceralasertib ([2]; H460 (wild-type p53), medium or high concentration): certain additive cytotoxic effects | additive cytotoxic effect in combination therapy with adavosertib ([2]; H460 (wild-type p53), medium or high concentrations): certain additive cytotoxic effects | Ratio combo/single ([2]; H460, 0.15 μM ceralasertib, first assay): 6.67 | Ratio combo/single ([2]; H460, 0.15 μM ceralasertib, second assay): 4.00 | Ratio combo/single ([2]; H460, 0.44 μM ceralasertib, first assay): 20.00 | Ratio combo/single ([2]; H460, 0.44 μM ceralasertib, second assay): 24.00 | Ratio combo/single ([2]; H460, 1.3 μM ceralasertib, first assay): 13.33 | Ratio combo/single ([2]; H460, 1.3 μM ceralasertib, second assay): 12.00 | Ratio single/combo ([2]; H460, IC50 monotherapy / IC50 with 0.5 nM AZD7762): 1.03 | Ratio single/combo ([2]; H460, IC50 monotherapy / IC50 with 0.5 nM adavosertib): 1.10 | Ratio single/combo ([2]; H460, IC50 monotherapy / IC50 with 6.4 nM AZD7762): 0.73 | Ratio single/combo ([2]; H460, IC50 monotherapy / IC50 with 6.4 nM adavosertib): 1.26 | Ratio single/combo ([2]; H460, IC50 monotherapy / IC50 with 160 nM AZD7762): 2.13 | Ratio single/combo ([2]; H460, IC50 monotherapy / IC50 with 160 nM adavosertib): 1.79 | Ratio single/combo ([2]; H460, IC50 monotherapy / IC50 with 800 nM adavosertib): 2.27 | Ratio combo/single ([2]; H460, IC50 with 0.05 nM palbociclib / IC50 monotherapy): 1.12 | Ratio combo/single ([2]; H460, IC50 with 0.64 nM palbociclib / IC50 monotherapy): 1.12 | Ratio combo/single ([2]; H460, IC50 with 400 nM palbociclib / IC50 monotherapy): 1.24
